Where “and” joins values, the source holds several entries; their conditions need not be identical. Equal entries are not always repeated.
Legend:
[1] = cited from earlier work
STAT3 = assay: pSTAT3 inhibition IC50, STAT3 luciferase reporter assay; type: cell-based, human; settings: THP-1STAT3-Luc cells, 72 h treatment, then IL-6 stimulation 5 h, luminescence
THP-1STAT3-Luc cells = settings: 72 h, concentration beyond 1.23 μg/mL
[2] = test system: bone marrow cells from wildtype C57BL/6 mice (M-MDSCs, dendritic cells); type: cell-based; settings: 72 h, KR158 glioma conditioned media
[3] = in water at a concentration equivalent to 10 mg/mL of LLL12

For `NS(=O)(=O)c1cccc2c1C(=O)c1cccc(O)c1C2=O` [LLL12], the LogP [1] is listed as 2.596, the “IC50 of STAT3 inhibition” value (STAT3) is listed as 0.31 ± 0.05 µg/mL and 0.307 µg/mL and the Cell death (THP-1STAT3-Luc cells) is listed as about 100%. The “Ly6C+ M-MDSC population compared to vehicle control” value ([2]; 0.4 μg/mL and 0.04 μg/mL) was “statistically significant reduction”, the “CD86+ cells (APC activation)” value ([2]; 0.004-0.4 μg/mL) was “dose-dependent increase” and the “CD11c expression (CD11c+ cells) compared to vehicle” value ([2]; highest concentration (0.4 μM)) was “statistically significant increase”. For the same molecule, the “Water solubility (visual)” value [3] was “poorly soluble”.

From publication PMC12820809 (Biomacromolecules, 2025)
